We go through three molecules from publication PMC7127030 (Bioorganic & Medicinal Chemistry Letters, 2009).

In test [1] the target is T1, SCV Hel duplex DNA-unwinding activity (Severe acute respiratory syndrome coronavirus, UniProt P0C6X7). Type of test: biochemical, SARS coronavirus.
Test [2] has as its target T1, SCV Hel duplex DNA-unwinding activity. The note with it: read-out: IC50 SCV Hel duplex DNA-unwinding; cited from earlier work.

With `O=C(O)/C(O)=C/C(=O)c1ccc(OCc2ccc(Cl)cc2)cc1` [Compound 2], in test [1], the “inhibition of helicase duplex DNA-unwinding activity” value is “neither 2 nor 3 showed inhibition”.
Same read-out and setting: the value for `O=C(O)/C(O)=C/C(=O)c1cccc(OCc2ccccc2)c1` [Compound 3] was “neither 2 nor 3 showed inhibition”.
One may read the IC50 as the concentration needed to halve the response being measured. Take `COc1cc(C23OC4(O)CC(O)(CC(O)(C4)O2)O3)ccc1O` [vanillinbananin]: the IC50 in test [2] is 2.7 µM.
